Assays:
esterase = conditions: in vivo; cited from earlier work
[1] = concentration in serum after oral administration to mice, bioassay; format: in vivo, mice (Jcl:ICR); conditions: mouse, serum, 200 mg/kg, M. luteus bioassay, read-out: maximum concentration in the serum
How it was run: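 Male 4-week-old Jcl:ICR mice dosed orally with compound suspended in 0.2% CMC (4 mg/ml, 1 ml; another compound at 200 mg/kg). Serum sampled 30-360 min (n=2), diluted 1:1 in CH3CN-phosphate pH 7.0; concentration measured by M. luteus ATCC9341 agar-well bioassay (32 °C, 18 h) against a calibration curve.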

[2] = oral, man and dog; cited from earlier work
[3] = recovery in urine after oral administration to mice, bioassay; format: in vivo; conditions: mouse, 200 mg/kg oral (compound (3)), urine 4 and 24 hours
Protocol: Subsequently, 200 mg/kg of the compound (3) was orally administered to three mice in the same manner as described above.
The three mice were put in a metabolic cage MM type (Sugiyamagen Company, Tokyo, Japan) and urine was collected 4 and 24 hours after the administration of the test compound. The collected urine was filtered through a filter having a pore size of 0.45 μm (Millipore) and was mixed with an equivalent volume of 50% CH3CN-50 mM phosphate (1:1 by volume) buffer (pH 6.5) to serve as a urine sample. The bioassay was carried out in the same manner as described above to determine the concentration of the test compound in the urine sample. The recovering in the urine was calculated according to the following equation. [formula]

[4] = Journal of Antibiotics, 36 (4), 442 (1983); cited from earlier work

Structure (SMILES) | metabolism of the two acyl groups in the neutral sugar moiety (esterase) | Cmax [1] | major metabolite with a cleaved lactone ring [2] | dose excreted at 24 h [3] | sustained antimicrobial activity in rat plasma compared with spiramycin I [4]
CCCC(=O)O[C@H]1[C@H](C)O[C@@H](O[C@H]2[C@H](N(C)C)[C@@H](O)[C@H](O[C@H]3[C@@H](CC=O)C[C@@H](C)[C@@H](O)/C=C/C=C/C[C@@H](C)OC(=O)C[C@@H](O)[C@@H]3OC)O[C@@H]2C)C[C@@]1(C)OC(=O)CC [RKM, rokitamycin, reference compound] | removed with esterase in vivo | 2900 ng/mL | no compound with a cleaved lactone ring has been reported as a major metabolite | < 2% | –
CO[C@@H]1[C@@H](O[C@@H]2O[C@H](C)[C@@H](O[C@H]3C[C@@](C)(O)[C@@H](O)[C@H](C)O3)[C@H](N(C)C)[C@H]2O)[C@@H](CC=O)C[C@@H](C)[C@@H](O[C@H]2CC[C@H](N(C)C)[C@@H](C)O2)/C=C/C=C/C[C@@H](C)OC(=O)C[C@H]1OC(C)=O [spiramycin II] | – | – | – | – | shows a sustained antimicrobial activity in rat plasma

Reference: patent US5407918A, “16-membered macrolide derivatives and process for producing the same” (Meiji Seika Kaisha, Ltd., priority 1992, dated 1995)
